Key:
human neutrophils [1] = assay: NET photography (immunofluorescence and scanning electron microscopy); format: cell-based; settings: 10 nM PMA; 1-10 μM bletinib
Protocol: Neutrophils (3×10^5 cells/mL) were incubated with DMSO or bletinib for 10 min before being activated with 10 nM PMA for 2 h. Neutrophils were fixed with 4% paraformaldehyde and treated with 5% goat serum blocking buffer for 1 h and then treated with […] anti-MPO (Abcam) and 5 μg/mL anti-NE (Merck Millipore) antibodies for 1 h. These cells were then treated with the Alexa 488 or 568-labelled secondary goat anti-rabbit antibody for another 1 h. Thereafter, the cells were washed with PBS and treated with 1 ng/mL Hoechst 33342 and ProLong Gold antifade reagent (Invitrogen, CA, USA). Immunofluorescence microscopy and scanning electron microscopy were both used to observe the NET formation of activated neutrophils.

[2] = Superoxide scavenging capacity, WST-1 reduction; format: biochemical; settings: WST-1 reduction at 450 nm
Protocol: FIG. 1 Bletinib suppressed superoxide anion production in stimulated human neutrophils. Neutrophils (6×10^5 cells/mL) were incubated with 0.1% DMSO or […] bletinib for 5 min before activation with stimuli. Superoxide anion production was induced by (A) fMLF, (B) MMK-1, (C) NaF, or (D) PMA and then measured using ferricytochrome c reduction method. (E) Cytotoxicity was assessed using LDH release. (F) Superoxide scavenging capacity of bletinib was assessed in a xanthine/xanthine oxidase cell-free system. WST-1 reduction was measured through spectrophotometry at 450 nm, with 20 U/mL superoxide dismutase as the positive control.

human neutrophils [3] = assay: Extracellular superoxide anion production in stimulated neutrophils (ferricytochrome c reduction); format: cell-based
Protocol: Extracellular superoxide anion production in activated neutrophils was assessed through the reduction of ferricytochrome c. After incubating them with Ca^2+ (1 mM) and ferricytochrome c (0.5 mg/mL) at 37° C., the isolated human neutrophils (6×10^5 cells/mL) were then incubated with 0.1% DMSO or 0.3-10 μM bletinib for 5 min. The cells were pretreated with cytochalasin B (CB, 1 or 2 μg/mL) for 3 min and stimulated with fMLF, MMK-1, or sodium fluoride (NaF), or directly activated with phorbol-12-myristate-13-acetate (PMA). The change in absorbance at 550 nm was detected continuously using a spectrophotometer (U-3010, Hitachi, Tokyo, Japan), and superoxide anion levels were calculated using a method described previously (Hwang et al., 2003 Mol. Pharmacol. 64(6), 1419-1427).

Hck = Hck (Homo sapiens, UniProt P08631); assay: Cell-free ADP-Glo kinase assay, Hck; format: biochemical; settings: 1-10 μM bletinib or 0.1-3 μM PP2; 125 μM ATP; concentration-dependent
Chain of Hck (P08631 whole entry): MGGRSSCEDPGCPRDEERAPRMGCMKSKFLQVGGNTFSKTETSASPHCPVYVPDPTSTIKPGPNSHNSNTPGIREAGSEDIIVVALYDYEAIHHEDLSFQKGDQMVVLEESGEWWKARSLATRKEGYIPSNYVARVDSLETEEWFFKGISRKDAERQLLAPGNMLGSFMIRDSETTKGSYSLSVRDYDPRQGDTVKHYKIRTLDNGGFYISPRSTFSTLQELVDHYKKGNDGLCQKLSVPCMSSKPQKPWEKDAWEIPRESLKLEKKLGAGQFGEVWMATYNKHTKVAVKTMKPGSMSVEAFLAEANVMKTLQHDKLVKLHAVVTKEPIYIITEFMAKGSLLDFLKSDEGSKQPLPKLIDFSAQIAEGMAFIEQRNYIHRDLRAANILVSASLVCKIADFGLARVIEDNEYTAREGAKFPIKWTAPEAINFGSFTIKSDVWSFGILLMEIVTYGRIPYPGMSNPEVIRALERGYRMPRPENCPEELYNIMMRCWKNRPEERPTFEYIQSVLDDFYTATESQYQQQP
Protocol: The kinase activity of SFKs was assessed using an ADP-Glo kinase assay kit (Promega, Fitchburg, USA) according to manufacturer instructions. […] The ADP-Glo reagent was used to end the kinase reaction and remove the remnant ATP; next, the kinase, which converted ADP to ATP, detection reagent was added and incubated for 30 min. Luciferin/luciferase luminescence was determined on an Infinite 200 Pro (Tecan, Switzerland).

Vav (Y174) = assay: Immunoblotting of neutrophil lysates, Vav phosphorylation; format: cell-based, human; settings: 0.1 μM fMLF-stimulated neutrophils
Protocol: (§1) Neutrophils incubated with bletinib or DMSO at 37° C. for 5 min were stimulated with 0.1 μM fMLF for 30 s. The proteins were separated from neutrophil lysates through electrophoresis (12% sodium dodecyl sulphate-polyacrylamide gel electrophoresis) and then transferred to nitrocellulose membranes. The target proteins were identified through immunoblotting with specific antibodies against p38, p-p38, Akt, p-Akt S473, ERK, p-ERK, INK, p-JNK, Src, p-SFKs Y416, p-Src Y416, Lyn, p-Lyn (Y396), Fgr, p-Fgr (Y412), Hck, p-Hck (Y410), Btk, p-Btk Y223, Vav, and p-Vav (Y174) as well as with HRP-conjugated secondary anti-rabbit antibody (Cell Signaling Technology). The signal intensity was detected and quantified using the UVP BioSpectrum Imaging System (Analytik Jena, USA).

Fgr (Y412) = assay: Immunoblotting of neutrophil lysates, Fgr phosphorylation; format: cell-based, human; settings: 0.1 μM fMLF-stimulated neutrophils
Protocol: as §1

BALB/c mice = assay: LPS-induced mortality model in mice; format: in vivo; settings: 25 mg/Kg bletinib; LPS 5 mg/Kg; monitored 5 days; log-rank p=0.0085
Protocol: For the LPS-induced mortality model, mice were intraperitoneally injected with a single 50-μL dose of LPS (from Escherichia coli O111:B4; 5 mg/kg) or 0.9% saline (vehicle alone group). The mice were monitored for 5 days to determine the survival rate.

Lyn (Y396) = assay: Immunoblotting of neutrophil lysates, Lyn phosphorylation; format: cell-based, human; settings: 0.1 μM fMLF-stimulated neutrophils
Protocol: as §1

Btk (Y223) = assay: Immunoblotting of neutrophil lysates, Btk phosphorylation; format: cell-based, human; settings: 0.1 μM fMLF-stimulated neutrophils
Protocol: as §1

In the case of COc1cc(O)cc(CCc2c(Cc3ccc(O)cc3)ccc(O)c2Cc2ccc(O)cc2)c1 [bletinib, 3,3′-dihydroxy-2′,6′-bis(p-hydroxybenzyl)-5-methoxybibenzyl], the “NET formation, immunofluorescent staining and scanning electron microscopy images” value (human neutrophils [1]) is reported as “effectively inhibited”, the “ROS scavenging activity in the cell-free xanthine and xanthine oxidase system” value [2] is reported as “did not exhibit” and the IC50 (human neutrophils [3]; Homo sapiens, Neutrophil, fMLF stimulation, bletinib preincubated 5 min, read-out: superoxide anion produced by fMLF-activated human neutrophils, IC50) is reported as 620 nM. The “superoxide anion release from neutrophils stimulated by MMK-1” value (human neutrophils [3]; MMK-1 stimulation) was “attenuated”, the “superoxide anion release from neutrophils stimulated by sodium fluoride (NaF)” value (human neutrophils [3]; NaF stimulation) was “attenuated” and the “superoxide anion release from neutrophils stimulated by PMA” value (human neutrophils [3]; PMA stimulation) was “attenuated”. The “kinase activity of Hck” value (Hck) was “inhibited”, the “phosphorylation of Vav (Y174)” value (Vav (Y174)) was “significantly inhibited” and the “phosphorylation of Fgr (Y412)” value (Fgr (Y412)) was “significantly inhibited”. For the same compound, the “survival time of LPS-primed mice” value (BALB/c mice) was “significantly prolonged”, the “phosphorylation of Lyn (Y396)” value (Lyn (Y396)) was “significantly inhibited” and the “phosphorylation of Btk (Y223)” value (Btk (Y223)) was “significantly inhibited”.

Reference: US20220339122A1, “METHODS FOR THE TREATMENT OF DISEASES ASSOCIATED WITH DYSREGULATED ACTIVATION AND RECRUITMENT OF NEUTROPHILS” (Chang Gung University, priority 2021, published 2022)
